# Assay results from patent EP4516280A1, “COSMETIC COMPOSITIONS” (The Boots Company plc, priority 2023, dated 2025).
# System: mushroom tyrosinase
# Test: Tyrosinase inhibition test (L-DOPA oxidation, absorbance at 470 nm)
# Assay type: biochemical
# Conditions: single compound, Concentration 0.1%
# Excerpt: The tyrosinase inhibition test was used to determine the tyrosinase inhibition ability of the compounds. The test comprises adding the test compound to a solution of L-dihydroxyphenylalanine (L-(DOPA)) and mushroom tyrosinase. L-(DOPA) is converted to […] by the mushroom tyrosinase, causing a brown colour to form. Inhibition of this reaction prevents the brown colour formation. The lighter the colour at the end of the reaction, the stronger is the inhibitory effect of the active. Absorbance data may be collected using a plate reacted set up to have a kinetic read every 1 minute for 30 minutes, where absorbance is read at 470 nm.
row,Compound,Tyrosinase Inhibition (%)
1,"O=C(O)C(O)c1ccccc1 (centres unmarked) [B, Mandelic acid]",80.279
2,"C=C(C)[C@@H]1CCC(C)=C[C@H]1c1c(O)cc(CCCCC)cc1O [G, Cannabidiol isolate (CBD)]",9.134
3,"CC1(C)[C@@H](O[C@H]2O[C@H](C(=O)[O-])[C@@H](O)[C@H](O)[C@H]2O[C@@H]2O[C@H](C(=O)[O-])[C@@H](O)[C@H](O)[C@H]2O)CC[C@]2(C)[C@H]3C(=O)C=C4[C@@H]5C[C@@](C)(C(=O)O)CC[C@]5(C)CC[C@@]4(C)[C@]3(C)CC[C@@H]12.[K+].[K+] [H, Dipotassium glycyrrhizate (DPG)]",54.567
4,"CCCCCCCCCCCCCCC[C@@H](O)[C@@H](N)CO [K, Sphinganine]",-5.78
5,Feruloyl oligopeptide-33,41.765
